Source: US20220387604A1, “SELECTIVE DUAL HISTONE DEACETYLASE 6/8 (HDAC6/8) DEGRADERS AND METHODS OF USE THEREOF” (DANA-FARBER CANCER INSTITUTE, INC., priority 2019, published 2022)

Key:
Assay type in all cases: biochemical
HDAC1 = target: T1, HDAC1 (Homo sapiens, UniProt Q13547); test: HDAC enzymatic assay (Reaction Biology), HDAC1
T1 construct: purchased Reaction Biology
Experimental: (§1) Compound 1 was tested in an enzymatic assay from Reaction Biology® against 10 HDAC isoforms. The IC50 values were derived from a 10-dose response curve.
(§2) Base Reaction buffer: 50 mM Tris-HCl, pH8.0, 137 mM NaCl, 2.7 mM KCl, and 1 mM MgCl2, Add fresh: 1 mg/ml BSA, 1% DMSO
(§3) Fluorogenic HDAC General Substrate (HDAC1, HDAC2, HDAC3, HDAC6, HDAC10, and HDAC11): 50 μM, Arg-His-Lys-Lys(Ac)-AMC
(§4) 1. Delivered 2× enzyme in wells of reaction plate except in the control wells and added buffer to control wells. 2. Delivered compounds in 100% DMSO into the enzyme mixture by Acoustic technology (Echo550; nanoliter range). Spin down and pre-incubation. 3. Delivered 2× Substrate Mixture (Fluorogenic HDAC Substrate and co-factor if applicable) in all reaction wells to initiate the reaction. Spin and shake. 4. Incubated for 30 min for Class 2A, 1 h for HDAC1, 2, 3, and 6, and 2 h for the rest of HDAC isoforms and SIRTs at 30° C. with seal.
(§5) 5. Added Developer with Trichostatin A (or Nicotinamide for SIRTs) to stop the reaction and to generate fluorescent color. 6. The fluorescence that was generated was detected with excitation (Ex) at […] and emission (Em) at 460 nM by the EnVision Multilabel Plate Reader (PerkinElmer®, Santa Clara, Calif., USA).
(§6) IC50 values were derived from a 10-dose response curve.

HDAC2 = target: T2, HDAC2 (Homo sapiens, UniProt Q92769); test: HDAC enzymatic assay (Reaction Biology), HDAC2
T2 construct: purchased Reaction Biology
Experimental: as §1, §2, §3, §4, §5, §6

HDAC6 = target: T3, HDAC6 (Homo sapiens, UniProt Q9UBN7); test: HDAC enzymatic assay (Reaction Biology), HDAC6; details: 10-dose response curve; read-out: Compound IC50 (M), HDAC6
T3 construct: purchased Reaction Biology
T3 sequence (Q9UBN7 1-1215): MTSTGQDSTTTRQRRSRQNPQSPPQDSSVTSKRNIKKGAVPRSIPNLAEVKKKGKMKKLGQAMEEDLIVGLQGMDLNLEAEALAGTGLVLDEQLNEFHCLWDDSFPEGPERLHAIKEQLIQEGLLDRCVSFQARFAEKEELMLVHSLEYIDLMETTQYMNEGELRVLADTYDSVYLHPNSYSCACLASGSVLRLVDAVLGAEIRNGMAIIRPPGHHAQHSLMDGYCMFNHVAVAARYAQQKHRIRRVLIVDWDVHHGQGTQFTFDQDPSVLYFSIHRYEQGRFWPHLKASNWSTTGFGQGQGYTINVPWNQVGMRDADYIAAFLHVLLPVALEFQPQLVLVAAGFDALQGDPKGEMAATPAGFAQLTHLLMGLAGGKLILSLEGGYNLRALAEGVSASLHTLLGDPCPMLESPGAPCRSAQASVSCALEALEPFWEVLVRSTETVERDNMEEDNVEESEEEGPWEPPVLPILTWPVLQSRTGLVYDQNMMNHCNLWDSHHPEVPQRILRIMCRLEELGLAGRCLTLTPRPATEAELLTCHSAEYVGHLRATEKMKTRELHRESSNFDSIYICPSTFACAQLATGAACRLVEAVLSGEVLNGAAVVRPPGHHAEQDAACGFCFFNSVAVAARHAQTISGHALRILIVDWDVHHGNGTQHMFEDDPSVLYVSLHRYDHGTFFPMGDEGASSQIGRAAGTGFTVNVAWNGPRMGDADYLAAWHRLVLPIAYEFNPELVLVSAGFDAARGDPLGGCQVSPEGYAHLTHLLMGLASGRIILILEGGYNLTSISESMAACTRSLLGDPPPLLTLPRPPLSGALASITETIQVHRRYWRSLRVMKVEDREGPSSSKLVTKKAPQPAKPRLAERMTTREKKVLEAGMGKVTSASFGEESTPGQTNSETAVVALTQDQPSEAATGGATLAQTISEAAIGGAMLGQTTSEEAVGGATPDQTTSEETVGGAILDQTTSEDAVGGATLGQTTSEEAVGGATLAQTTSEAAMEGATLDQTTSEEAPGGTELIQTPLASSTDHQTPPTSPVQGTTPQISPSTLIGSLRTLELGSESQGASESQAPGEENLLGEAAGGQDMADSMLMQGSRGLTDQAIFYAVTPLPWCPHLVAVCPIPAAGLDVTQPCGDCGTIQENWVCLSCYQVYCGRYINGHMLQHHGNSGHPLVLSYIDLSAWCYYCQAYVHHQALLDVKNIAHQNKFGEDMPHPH
Experimental: as §1, §2, §3, §4, §5, §6

HDAC4 = target: T4, HDAC4 (Homo sapiens, UniProt P56524); test: HDAC enzymatic assay (Reaction Biology), HDAC4; details: summary of Table 1
T4 construct: purchased Reaction Biology
Experimental: as §1, §2
Class2A Substrate (HDAC4, HDAC5, HDAC7, and HDAC9): Boc-Lys(trifluoroacetyl)-AMC
as §4, §5, §6

T2 sequence (Q92769 whole entry): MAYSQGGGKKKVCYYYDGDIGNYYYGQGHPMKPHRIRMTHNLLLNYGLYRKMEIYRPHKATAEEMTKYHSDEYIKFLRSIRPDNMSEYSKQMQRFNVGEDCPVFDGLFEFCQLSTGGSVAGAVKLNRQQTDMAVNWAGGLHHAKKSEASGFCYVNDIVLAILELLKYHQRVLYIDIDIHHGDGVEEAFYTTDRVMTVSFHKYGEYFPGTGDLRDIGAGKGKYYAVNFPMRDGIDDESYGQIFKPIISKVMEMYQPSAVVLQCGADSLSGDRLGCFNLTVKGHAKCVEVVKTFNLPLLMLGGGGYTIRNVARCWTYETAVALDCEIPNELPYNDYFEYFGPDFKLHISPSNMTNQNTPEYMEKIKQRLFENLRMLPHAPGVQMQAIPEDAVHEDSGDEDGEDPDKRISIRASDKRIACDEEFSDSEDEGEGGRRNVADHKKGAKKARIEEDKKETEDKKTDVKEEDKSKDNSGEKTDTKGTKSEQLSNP
T1 sequence (Q13547 whole entry): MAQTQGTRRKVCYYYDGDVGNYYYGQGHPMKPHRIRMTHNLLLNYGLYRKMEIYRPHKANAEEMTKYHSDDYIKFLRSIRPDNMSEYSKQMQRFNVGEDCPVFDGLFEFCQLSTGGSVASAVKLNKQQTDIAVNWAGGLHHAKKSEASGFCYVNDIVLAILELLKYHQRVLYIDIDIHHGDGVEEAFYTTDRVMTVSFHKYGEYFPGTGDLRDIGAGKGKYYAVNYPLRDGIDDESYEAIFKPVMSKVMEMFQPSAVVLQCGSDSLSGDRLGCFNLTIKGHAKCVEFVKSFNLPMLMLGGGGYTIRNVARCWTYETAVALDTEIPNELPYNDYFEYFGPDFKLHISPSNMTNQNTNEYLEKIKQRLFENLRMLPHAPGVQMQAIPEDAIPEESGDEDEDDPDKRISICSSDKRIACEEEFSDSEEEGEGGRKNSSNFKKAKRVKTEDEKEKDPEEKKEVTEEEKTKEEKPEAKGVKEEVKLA
T4 sequence (P56524 whole entry): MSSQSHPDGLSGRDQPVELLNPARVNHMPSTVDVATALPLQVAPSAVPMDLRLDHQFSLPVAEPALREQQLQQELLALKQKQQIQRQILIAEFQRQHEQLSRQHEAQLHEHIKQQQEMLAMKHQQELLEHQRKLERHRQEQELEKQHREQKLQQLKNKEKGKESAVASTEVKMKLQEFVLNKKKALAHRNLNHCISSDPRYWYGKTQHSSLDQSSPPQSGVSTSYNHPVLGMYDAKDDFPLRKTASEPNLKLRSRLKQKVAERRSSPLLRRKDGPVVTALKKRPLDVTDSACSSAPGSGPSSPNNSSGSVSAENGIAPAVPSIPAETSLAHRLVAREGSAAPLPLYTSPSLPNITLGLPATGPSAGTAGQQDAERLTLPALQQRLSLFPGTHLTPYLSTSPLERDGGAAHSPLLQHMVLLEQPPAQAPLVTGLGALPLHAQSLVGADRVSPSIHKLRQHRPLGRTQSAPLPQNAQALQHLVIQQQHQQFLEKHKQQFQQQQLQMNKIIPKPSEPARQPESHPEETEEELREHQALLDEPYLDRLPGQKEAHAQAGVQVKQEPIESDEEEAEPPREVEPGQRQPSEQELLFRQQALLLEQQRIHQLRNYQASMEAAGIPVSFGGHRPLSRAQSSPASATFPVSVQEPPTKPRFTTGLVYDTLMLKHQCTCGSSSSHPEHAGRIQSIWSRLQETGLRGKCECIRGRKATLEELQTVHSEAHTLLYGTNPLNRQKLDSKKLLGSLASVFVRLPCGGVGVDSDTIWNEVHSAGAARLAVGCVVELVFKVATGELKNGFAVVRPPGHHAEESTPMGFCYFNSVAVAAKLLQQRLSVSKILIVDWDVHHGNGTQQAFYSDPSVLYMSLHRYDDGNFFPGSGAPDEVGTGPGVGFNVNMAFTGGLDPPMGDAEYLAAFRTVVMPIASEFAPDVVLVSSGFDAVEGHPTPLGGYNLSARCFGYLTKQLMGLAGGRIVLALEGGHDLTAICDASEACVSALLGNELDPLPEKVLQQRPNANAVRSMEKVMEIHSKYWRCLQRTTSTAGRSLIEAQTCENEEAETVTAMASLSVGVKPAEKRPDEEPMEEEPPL

O=C(/C=C/c1ccc(CN(CCOCCOCCNc2cccc3c2C(=O)N(C2CCC(=O)NC2=O)C3=O)CCc2c[nH]c3ccccc23)cc1)NO (stereo not drawn) [Compound 1, (E)-3-(4-(((2-(1H-indol-3-yl)ethyl)(2-(2-(2-((2-(2,6-dioxopiperidin-3-yl)-1,3-dioxoisoindolin-4-yl)amino)ethoxy)ethoxy)ethyl)amino)methyl)phenyl)-N-hydroxyacrylamide] was tested, and the IC50 (HDAC1; 10-dose response curve, read-out: Compound IC50 (M), HDAC1) was 1.06e-06 M, the “inhibition of enzymatic activity of HDAC1 (in words)” value (HDAC1; summary of Table 1) was “Moderate inhibition” and the IC50 (HDAC2; 10-dose response curve, read-out: Compound IC50 (M), HDAC2) was 3.48e-06 M. For the same compound, the “inhibition of enzymatic activity of HDAC2 (in words)” value (HDAC2; summary of Table 1) was “Moderate inhibition”, the IC50 (HDAC6) was 1.6e-07 M and the “inhibition of enzymatic activity of HDAC4 (in words)” value (HDAC4) was “did not inhibit”.
